Test results taken from patent US11931343B2 (ARCUS BIOSCIENCES, INC., priority 2018, dated 2024).
pIC50: −log10 of the molar value.

Target: T1, human CD73 (Homo sapiens, UniProt P21589)
T1 sequence (P21589 27-549): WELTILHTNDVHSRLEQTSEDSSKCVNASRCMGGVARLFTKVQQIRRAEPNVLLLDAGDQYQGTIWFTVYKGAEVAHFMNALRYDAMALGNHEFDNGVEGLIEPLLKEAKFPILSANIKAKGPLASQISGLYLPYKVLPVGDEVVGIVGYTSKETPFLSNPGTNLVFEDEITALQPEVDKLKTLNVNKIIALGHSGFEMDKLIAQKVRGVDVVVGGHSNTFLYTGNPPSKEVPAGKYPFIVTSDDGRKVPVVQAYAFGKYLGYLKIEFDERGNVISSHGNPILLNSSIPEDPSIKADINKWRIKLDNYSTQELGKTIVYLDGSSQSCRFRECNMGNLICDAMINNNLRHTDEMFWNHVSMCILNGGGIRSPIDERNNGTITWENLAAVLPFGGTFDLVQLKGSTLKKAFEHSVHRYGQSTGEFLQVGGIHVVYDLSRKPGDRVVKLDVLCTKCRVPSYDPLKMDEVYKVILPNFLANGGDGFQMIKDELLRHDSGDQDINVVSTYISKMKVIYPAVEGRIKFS
Test: Inhibition of Ecto-5′-nucleotidase (CD73) activity in CHO-CD73 cells, phosphate release from AMP
Type: cell-based
Settings: CHO-K1 cells stably transfected with human CD73; 25 μM AMP; 50 minutes, 37° C.; read-out: Potency: CD73 IC50

SMILES	pIC50
O=c1[nH]c2ccc(-n3nnc4c(Cl)cc(-c5ccnn5Cc5ccc(F)c(F)c5)cc43)cc2[nH]1 [Example 254]	6.00 to 7.00
N#Cc1cnc(Cn2nccc2-c2cc(F)c3nnn(-c4ccc5[nH]c(=O)[nH]c5c4)c3c2)c(F)c1 [Example 255]	6.00 to 7.00
O=c1[nH]c2ccc(-n3nnc4c(Cl)cc(-c5ccnn5Cc5cc(F)c(Cl)cc5Cl)cc43)cc2[nH]1 [Example 256]	6.00 to 7.00
O=c1[nH]c2ccc(-n3nnc4c(F)cc(-c5ccnn5Cc5ccc6[nH]cnc6c5)cc43)cc2[nH]1 [Example 257]	< 6.00
CC(C)c1cccc(-n2nccc2-c2cc(Cl)c3nnn(-c4ccc5[nH]c(=O)[nH]c5c4)c3c2)c1 [Example 258]	6.00 to 7.00
CS(=O)(=O)c1cc(C#N)ccc1Cn1nccc1-c1cc(F)c2nnn(-c3ccc4[nH]c(=O)[nH]c4c3)c2c1 [Example 260]	6.00 to 7.00
CCS(=O)(=O)c1cc(C#N)ccc1Cn1nccc1-c1cc(F)c2nnn(-c3ccc4[nH]c(=O)[nH]c4c3)c2c1 [Example 261]	6.00 to 7.00
O=c1[nH]c2ccc(-n3nnc4c(Cl)cc(-c5ccnn5C5CCc6cc(Cl)ccc65)cc43)cc2[nH]1 (centres unmarked) [Example 262]	6.00 to 7.00
Cc1cc(-n2nccc2-c2cc(Cl)c3nnn(-c4ccc5[nH]c(=O)[nH]c5c4)c3c2)ccc1Cl [Example 263]	< 6.00
C=C(C)c1cc(C#N)ccc1Cn1nccc1-c1cc(F)c2nnn(-c3ccc4[nH]c(=O)[nH]c4c3)c2c1 [Example 264]	6.00 to 7.00
O=c1[nH]c2ccc(-n3nnc4c(Cl)cc(-c5ccnn5Cc5cccc[n+]5[O-])cc43)cc2[nH]1 [Example 265]	< 6.00
Cn1ccc(Cn2nccc2-c2cc(F)c3nnn(-c4ccc5[nH]c(=O)[nH]c5c4)c3c2)n1 [Example 266]	< 6.00
N#Cc1ccc(Cn2nccc2-c2cc(F)c3nnn(-c4ccc5[nH]c(=O)[nH]c5c4)c3c2)c(Br)c1 [Example 267]	6.00 to 7.00
N#Cc1ccc(Cn2nccc2-c2cc(F)c3nnn(-c4ccc5[nH]c(=O)[nH]c5c4)c3c2)c(CN2CCOCC2)c1 [Example 268]	< 6.00
N#Cc1cnc(Cn2nccc2-c2cc(Cl)c3nnn(-c4ccc5[nH]c(=O)[nH]c5c4)c3c2)c(Cl)c1 [Example 269]	6.00 to 7.00
Cc1cc(C#N)ccc1Cn1nccc1-c1cc(Cl)c2nnn(-c3ccc4[nH]c(=O)[nH]c4c3)c2c1 [Example 270]	> 7.00
N#Cc1ccc(Cn2nccc2-c2cc(F)c3nnn(-c4ccc5[nH]c(=O)[nH]c5c4)c3c2)c(C(F)(F)F)c1 [Example 271]	6.00 to 7.00
N#Cc1cc(F)c(Cn2nccc2-c2cc(Cl)c3nnn(-c4ccc5[nH]c(=O)[nH]c5c4)c3c2)cc1F [Example 272]	6.00 to 7.00
N#Cc1cc(F)c(Cn2nccc2-c2cc(Cl)c3nnn(-c4ccc5[nH]c(=O)[nH]c5c4)c3c2)c(F)c1 [Example 273]	6.00 to 7.00
Nc1nn(-c2ccc3cn[nH]c3c2)c2cc(-c3ccnn3Cc3ccc(Cl)cn3)cnc12 [Example 274]	6.00 to 7.00
O=c1[nH]c2ccc(-n3nnc4c(Cl)cc(-c5ccnn5C5Cc6ccc(Cl)cc6C5)cc43)cc2[nH]1 (centres unmarked) [Example 275]	6.00 to 7.00

SMILES	pIC50
N#Cc1cc(F)c(Cn2nccc2-c2cc(F)c3nnn(-c4ccc5[nH]c(=O)[nH]c5c4)c3c2)c(Cl)c1 [Example 276]	< 6.00
N#Cc1ccc(Cn2nccc2-c2cc(F)c3nnn(-c4ccc5[nH]c(=O)[nH]c5c4)c3c2)c(CN[C@H]2CCOC2)c1 [Example 277]	< 6.00
N#Cc1ccc(Cn2nccc2-c2cc(F)c3nnn(-c4ccc5[nH]c(=O)[nH]c5c4)c3c2)c(CN2CCCC2)c1 [Example 278]	< 6.00
COCc1cc(C#N)ccc1Cn1nccc1-c1cc(F)c2nnn(-c3ccc4[nH]c(=O)[nH]c4c3)c2c1 [Example 279]	6.00 to 7.00
Cc1cc(C#N)cnc1Cn1nccc1-c1cc(F)c2nnn(-c3ccc4[nH]c(=O)[nH]c4c3)c2c1 [Example 280]	< 6.00
N#Cc1ccc(Cn2nccc2-c2cnc3c(N)nn(-c4ccc5cn[nH]c5c4)c3c2)nc1 [Example 281]	6.00 to 7.00
O=c1[nH]c2ccc(-n3nnc4c(F)cc(-c5ccnn5Cc5cccc(F)c5Cl)cc43)cc2[nH]1 [Example 282]	6.00 to 7.00
O=c1[nH]c2ccc(-n3nnc4c(F)cc(-c5ccnn5Cc5cccc(Cl)c5Cl)cc43)cc2[nH]1 [Example 283]	6.00 to 7.00
COc1cc(Cl)ccc1Cn1nccc1-c1cc(F)c2nnn(-c3ccc4[nH]c(=O)[nH]c4c3)c2c1 [Example 284]	6.00 to 7.00
N#Cc1ccc(Cn2nccc2-c2cc(F)c3nnn(-c4ccc5[nH]c(=O)[nH]c5c4)c3c2)c(CN2CCC2C(=O)O)c1 (centres unmarked) [Example 285]	< 6.00
N#Cc1ccc(Cn2nccc2-c2cc(F)c3nnn(-c4ccc5[nH]c(=O)[nH]c5c4)c3c2)c(CNC2CCCC2)c1 [Example 286]	6.00 to 7.00
Nc1cccc(Cn2nccc2-c2cc(Cl)c3nnn(-c4ccc5[nH]c(=O)[nH]c5c4)c3c2)n1 [Example 287]	< 6.00
N#Cc1ccc(Cn2nccc2-c2cc(Cl)c3nnn(-c4ccc5[nH]c(=O)[nH]c5c4)c3c2)c(N2CCOCC2)c1 [Example 288]	< 6.00
CC(=O)c1cc(C#N)ccc1Cn1nccc1-c1cc(F)c2nnn(-c3ccc4[nH]c(=O)[nH]c4c3)c2c1 [Example 289]	6.00 to 7.00
N#Cc1ccc(Cn2nccc2-c2cc(F)c3nnn(-c4ccc5[nH]c(=O)[nH]c5c4)c3c2)c(C(N)=O)c1 [Example 290]	6.00 to 7.00
N#Cc1ccc(Cn2nccc2-c2cc(F)c3nnn(-c4ccc5[nH]c(=O)[nH]c5c4)c3c2)c(S(=O)(=O)c2ccccc2)c1 [Example 291]	6.00 to 7.00
N#Cc1ccc(Cn2nccc2-c2cc(F)c3nnn(-c4ccc5[nH]c(=O)[nH]c5c4)c3c2)c(OC(F)(F)F)c1 [Example 292]	6.00 to 7.00
Cc1cc(-n2nccc2-c2cc(Cl)c3nnn(-c4ccc5[nH]c(=O)[nH]c5c4)c3c2)ccn1 [Example 293]	6.00 to 7.00
N#Cc1ccc(Cn2nccc2-c2cc(F)c3nnn(-c4ccc5[nH]c(=O)[nH]c5c4)c3c2)c(CN2CC(C(=O)O)C2)c1 [Example 294]	6.00 to 7.00
Nc1nn(-c2ccc3[nH]c(=O)[nH]c3c2)c2cc(-c3ccnn3Cc3ccc(Cl)cn3)cnc12 [Example 295]	< 6.00
N#Cc1ccc(Cn2nccc2-c2cc(F)c3nnn(-c4ccc5[nH]c(=O)[nH]c5c4)c3c2)c(CNCC2CCCC2)c1 [Example 296]	6.00 to 7.00

SMILES	pIC50
N#Cc1ccc(Cn2nccc2-c2cc(F)c3nnn(-c4ccc5[nH]c(=O)[nH]c5c4)c3c2)c(CO)c1 [Example 297]	> 7.00
N#Cc1ccc(Cn2nccc2-c2cc(F)c3nnn(-c4ccc5[nH]c(=O)[nH]c5c4)c3c2)c(-c2ncco2)c1 [Example 299]	6.00 to 7.00
Cc1cc(-n2nccc2-c2cc(Cl)c3nnn(-c4ccc5[nH]c(=O)[nH]c5c4)c3c2)cc(C)n1 [Example 300]	6.00 to 7.00
CS(=O)(=O)c1cccc(-n2nccc2-c2cc(Cl)c3nnn(-c4ccc5[nH]c(=O)[nH]c5c4)c3c2)c1 [Example 301]	6.00 to 7.00
Cc1cc(C#N)ccc1Cn1nccc1-c1cc(F)c2nnn(-c3ccc4[nH]c(=O)[nH]c4c3)c2c1 [Example 302]	6.00 to 7.00
Cn1nccc1-c1cc(C#N)ccc1Cn1nccc1-c1cc(F)c2nnn(-c3ccc4[nH]c(=O)[nH]c4c3)c2c1 [Example 303]	6.00 to 7.00
N#Cc1ccc(Cn2nccc2-c2cc(F)c3nnn(-c4ccc5[nH]c(=O)[nH]c5c4)c3c2)c(-c2ccn[nH]2)c1 [Example 304]	6.00 to 7.00
CC(C)(O)C1CN(Cc2cc(C#N)ccc2Cn2nccc2-c2cc(F)c3nnn(-c4ccc5[nH]c(=O)[nH]c5c4)c3c2)C1 [Example 305]	6.00 to 7.00
N#Cc1ccc(Cn2nccc2-c2cc(F)c3nnn(-c4ccc5[nH]c(=O)[nH]c5c4)c3c2)c(C(=O)O)c1 [Example 306]	6.00 to 7.00
CNC(=O)c1cc(C#N)ccc1Cn1nccc1-c1cc(F)c2nnn(-c3ccc4[nH]c(=O)[nH]c4c3)c2c1 [Example 307]	6.00 to 7.00
N#Cc1ccc(Cn2nccc2-c2cc(F)c3nnn(-c4ccc5[nH]c(=O)[nH]c5c4)c3c2)c(C(=O)N2CC(O)C2)c1 [Example 308]	< 6.00
CCc1cc(C#N)ccc1Cn1nccc1-c1cc(F)c2nnn(-c3ccc4[nH]c(=O)[nH]c4c3)c2c1 [Example 309]	6.00 to 7.00
N#Cc1ccc(Cn2nccc2-c2cc(F)c3nnn(-c4ccc5[nH]c(=O)[nH]c5c4)c3c2)c(S(N)(=O)=O)c1 [Example 310]	6.00 to 7.00
N#Cc1ccc(Cn2nccc2-c2cn3c(-c4ccc5[nH]c(=O)[nH]c5c4)cnc3cn2)cc1 [Example 311]	< 6.00
CC(C)(O)c1cc(C#N)ccc1Cn1nccc1-c1cc(F)c2nnn(-c3ccc4[nH]c(=O)[nH]c4c3)c2c1 [Example 312]	< 6.00
CC(O)c1cc(C#N)ccc1Cn1nccc1-c1cc(F)c2nnn(-c3ccc4[nH]c(=O)[nH]c4c3)c2c1 (centres unmarked) [Example 313]	6.00 to 7.00
N#Cc1ccc(Cn2nccc2-c2cc3c(cn2)c(N)nn3-c2ccc3[nH]c(=O)[nH]c3c2)cc1 [Example 314]	6.00 to 7.00
N#Cc1ccc(Cn2nccc2-c2cnc3c(N)nn(-c4ccc5[nH]c(=O)[nH]c5c4)c3c2)nc1 [Example 315]	6.00 to 7.00
Cn1nc(-c2ccc3[nH]c(=O)[nH]c3c2)c2cc(-c3ccnn3Cc3ccc(C#N)cc3)cnc21 [Example 316]	6.00 to 7.00
Cc1nn(-c2ccc3cn[nH]c3c2)c2cc(-c3ccnn3Cc3ccc(C#N)cc3)cnc12 [Example 317]	6.00 to 7.00
